ChEMBL document CHEMBL5291721, “A preclinical secondary pharmacology resource illuminates target-adverse drug reaction associations of marketed drugs” (Nat Commun, 2023)

Experiments:
[1] = target: Gamma-aminobutyric acid receptor subunit alpha-1/alpha-2/beta-2/gamma-2 (Homo sapiens, UniProt P14867+P18507+P47869+P47870); assay type: protein-complex assay
D(1A) dopamine receptor = D(1A) dopamine receptor (Homo sapiens, UniProt P21728)
[2] = target: T1, Alpha-1A adrenergic receptor (Homo sapiens, UniProt P35348); assay type: functional, cell-based
T1 sequence (P35348 whole entry): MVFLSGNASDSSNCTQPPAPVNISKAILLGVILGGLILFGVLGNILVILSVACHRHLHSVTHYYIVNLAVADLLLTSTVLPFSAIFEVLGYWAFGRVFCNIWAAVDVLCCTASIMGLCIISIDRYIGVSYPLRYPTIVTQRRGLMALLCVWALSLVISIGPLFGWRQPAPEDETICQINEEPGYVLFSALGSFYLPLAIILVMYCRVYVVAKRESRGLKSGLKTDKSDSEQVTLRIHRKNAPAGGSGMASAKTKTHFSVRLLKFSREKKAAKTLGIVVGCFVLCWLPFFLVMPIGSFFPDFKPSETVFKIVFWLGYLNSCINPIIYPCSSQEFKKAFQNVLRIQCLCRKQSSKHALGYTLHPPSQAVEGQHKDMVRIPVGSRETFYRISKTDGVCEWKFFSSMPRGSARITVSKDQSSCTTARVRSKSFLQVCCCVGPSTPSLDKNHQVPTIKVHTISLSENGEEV

[3] = target: T2, Muscarinic acetylcholine receptor M1 (Homo sapiens, UniProt P11229); assay type: functional, cell-based
T2 sequence (P11229 whole entry): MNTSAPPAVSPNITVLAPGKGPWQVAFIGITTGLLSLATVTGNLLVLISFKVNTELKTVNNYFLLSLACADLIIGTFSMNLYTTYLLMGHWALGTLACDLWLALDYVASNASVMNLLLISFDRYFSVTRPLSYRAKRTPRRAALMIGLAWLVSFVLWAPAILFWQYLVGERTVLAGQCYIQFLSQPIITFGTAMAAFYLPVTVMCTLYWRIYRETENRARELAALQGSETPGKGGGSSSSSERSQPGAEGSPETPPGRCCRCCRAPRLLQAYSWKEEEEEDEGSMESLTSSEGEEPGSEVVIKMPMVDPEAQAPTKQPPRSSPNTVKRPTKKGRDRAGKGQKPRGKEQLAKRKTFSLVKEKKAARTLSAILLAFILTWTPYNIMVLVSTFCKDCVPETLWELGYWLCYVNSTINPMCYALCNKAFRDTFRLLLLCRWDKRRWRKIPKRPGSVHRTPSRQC

Prothrombin = Prothrombin (Homo sapiens, UniProt P00734); assay type: functional
Note: assay procedure not described here.

Gamma-aminobutyric acid receptor subunit alpha-1/alpha-2/beta-2/gamma-2, sequence (P14867 whole entry): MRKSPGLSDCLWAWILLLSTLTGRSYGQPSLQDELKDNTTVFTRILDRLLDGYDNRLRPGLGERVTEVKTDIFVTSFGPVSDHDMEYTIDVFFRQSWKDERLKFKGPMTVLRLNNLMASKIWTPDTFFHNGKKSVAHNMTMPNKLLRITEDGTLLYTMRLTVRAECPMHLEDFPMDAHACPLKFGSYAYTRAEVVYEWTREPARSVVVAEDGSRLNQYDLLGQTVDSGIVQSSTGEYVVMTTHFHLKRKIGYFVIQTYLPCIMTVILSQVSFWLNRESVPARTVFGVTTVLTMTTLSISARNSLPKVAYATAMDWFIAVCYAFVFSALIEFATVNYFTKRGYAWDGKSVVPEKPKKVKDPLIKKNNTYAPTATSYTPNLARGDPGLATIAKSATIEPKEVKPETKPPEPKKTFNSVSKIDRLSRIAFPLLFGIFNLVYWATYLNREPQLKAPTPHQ
Gamma-aminobutyric acid receptor subunit alpha-1/alpha-2/beta-2/gamma-2, sequence (P47870 whole entry): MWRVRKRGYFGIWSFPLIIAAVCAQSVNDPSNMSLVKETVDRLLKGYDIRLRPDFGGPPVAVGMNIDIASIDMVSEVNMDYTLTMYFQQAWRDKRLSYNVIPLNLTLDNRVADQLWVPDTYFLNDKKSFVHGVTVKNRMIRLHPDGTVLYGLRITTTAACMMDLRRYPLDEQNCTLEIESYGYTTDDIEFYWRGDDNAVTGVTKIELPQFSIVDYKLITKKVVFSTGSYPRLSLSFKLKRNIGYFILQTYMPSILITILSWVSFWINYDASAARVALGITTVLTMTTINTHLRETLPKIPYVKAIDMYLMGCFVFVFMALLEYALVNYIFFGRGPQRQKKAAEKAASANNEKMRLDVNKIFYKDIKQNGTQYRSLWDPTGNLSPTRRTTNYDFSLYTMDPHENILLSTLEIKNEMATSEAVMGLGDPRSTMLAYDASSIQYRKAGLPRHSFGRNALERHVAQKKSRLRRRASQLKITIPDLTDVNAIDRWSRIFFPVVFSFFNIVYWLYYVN
Gamma-aminobutyric acid receptor subunit alpha-1/alpha-2/beta-2/gamma-2, sequence (P18507 whole entry): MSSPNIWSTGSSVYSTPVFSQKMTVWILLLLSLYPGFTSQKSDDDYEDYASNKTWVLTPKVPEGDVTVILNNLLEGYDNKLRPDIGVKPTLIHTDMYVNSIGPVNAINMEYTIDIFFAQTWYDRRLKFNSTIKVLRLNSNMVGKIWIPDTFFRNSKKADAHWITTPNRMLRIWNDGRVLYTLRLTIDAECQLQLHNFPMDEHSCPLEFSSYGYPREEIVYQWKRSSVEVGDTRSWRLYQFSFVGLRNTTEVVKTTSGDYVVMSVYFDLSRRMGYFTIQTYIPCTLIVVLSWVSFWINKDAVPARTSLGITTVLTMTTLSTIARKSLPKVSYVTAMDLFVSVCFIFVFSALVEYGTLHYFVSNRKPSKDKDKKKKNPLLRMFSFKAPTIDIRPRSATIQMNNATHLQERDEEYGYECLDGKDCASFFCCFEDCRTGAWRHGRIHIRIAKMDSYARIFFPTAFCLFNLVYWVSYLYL
Gamma-aminobutyric acid receptor subunit alpha-1/alpha-2/beta-2/gamma-2, sequence (P47869 whole entry): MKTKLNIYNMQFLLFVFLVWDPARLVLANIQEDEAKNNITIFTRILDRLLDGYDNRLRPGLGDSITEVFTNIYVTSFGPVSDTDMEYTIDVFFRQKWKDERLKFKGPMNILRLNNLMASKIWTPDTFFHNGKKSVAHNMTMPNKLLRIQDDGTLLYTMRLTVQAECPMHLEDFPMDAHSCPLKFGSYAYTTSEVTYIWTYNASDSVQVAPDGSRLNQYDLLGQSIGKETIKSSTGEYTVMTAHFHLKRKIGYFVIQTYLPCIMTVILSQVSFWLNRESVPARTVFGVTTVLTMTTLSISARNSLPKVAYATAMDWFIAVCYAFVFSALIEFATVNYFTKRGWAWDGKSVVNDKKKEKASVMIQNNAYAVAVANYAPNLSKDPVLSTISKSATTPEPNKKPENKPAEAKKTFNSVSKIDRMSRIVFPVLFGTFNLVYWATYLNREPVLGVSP
D(1A) dopamine receptor, sequence (P21728 whole entry): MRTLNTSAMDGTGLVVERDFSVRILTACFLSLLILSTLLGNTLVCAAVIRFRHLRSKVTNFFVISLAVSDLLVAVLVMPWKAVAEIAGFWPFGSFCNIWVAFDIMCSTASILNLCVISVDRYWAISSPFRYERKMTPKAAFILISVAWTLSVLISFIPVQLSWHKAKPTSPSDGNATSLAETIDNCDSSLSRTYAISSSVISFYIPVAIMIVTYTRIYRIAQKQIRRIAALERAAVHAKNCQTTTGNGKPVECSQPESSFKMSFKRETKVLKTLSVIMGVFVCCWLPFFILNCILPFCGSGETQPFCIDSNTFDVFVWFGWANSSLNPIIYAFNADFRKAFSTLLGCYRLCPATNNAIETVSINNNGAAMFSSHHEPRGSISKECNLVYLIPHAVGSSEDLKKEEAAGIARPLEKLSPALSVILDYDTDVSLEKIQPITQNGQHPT

| SMILES | AC50 [1] [µM] | AC50 (D(1A) dopamine receptor) [µM] | AC50 [2] [µM] | AC50 [3] [µM] | AC50 (Prothrombin) [µM] |
| --- | --- | --- | --- | --- | --- |
| CCN(CCCc1ccccc1)CCCc1ccccc1 [ALVERINE] | > 30 | 3.72 | > 30 | > 30 | > 30 |
| CCCc1nc(C(C)(C)O)c(C(=O)O)n1Cc1ccc(-c2ccccc2-c2nnn[nH]2)cc1 [OLMESARTAN] | > 30 | > 30 | > 30 | > 30 | > 30 |
| CCOC(=O)N1CSC[C@H]1C(=O)O [TELMESTEINE] | > 30 | > 30 | > 30 | > 30 | > 30 |
